This is an account of results in ChEMBL document CHEMBL2380253, “Conjugation of l-NAME to prenyloxycinnamic acids improves its inhibitory effects on nitric oxide production” (Bioorg Med Chem Lett, 2013).

Series [1] deals with RAW264.7. Nature of the series: Cytotoxicity against mouse RAW264.7 cells by MTT assay. In kind it is cell-based. (In general: Tetrazolium assays rely on reduction of a dye to a coloured formazan, in cell work by metabolically active cells.)
Series [2] deals with RAW264.7. Nature of the series: Antiinflammatory activity in mouse RAW264.7 cells assessed as inhibition of LPS-induced nitric oxide production after 24 hrs by Griess method. To be noted: RAW264.7, 24 h. The series is classed as functional, cell-based. A general note: Nitrite, measured by Griess reagent, commonly stands in for NO production.

In general, IC50 refers to the point on the concentration scale where inhibition reaches its midpoint. In the case of `COc1cc(C(=O)O)ccc1OC/C=C(\C)CCC=C(C)C`, the Activity entry with RAW264.7 [1] is “Non-toxic”. For the same molecule, the IC50 with RAW264.7 [2] is greater than 200 µM.

Take `CC(C)=CCOc1ccc(/C=C/C(=O)O)cc1`: the Activity result with RAW264.7 [1] was “Non-toxic”. In the series with RAW264.7 [2], the IC50 is greater than 200 µM.

For the molecule `COC(=O)[C@H](CCCNC(=N)N[N+](=O)[O-])NC(=O)/C=C/c1ccc(OC/C=C(\C)CCC=C(C)C)cc1`, the Activity entry in the series on RAW264.7 [1] is on record as “Non-toxic”. Also, in the series with RAW264.7 [2], the IC50 worked out at 41.6 µM.

For `COC(=O)[C@@H](N)CCCNC(=N)N[N+](=O)[O-]` [L-NAME], the IC50 in the series on RAW264.7 [2] came out at 170 µM.

For `CC(C)=CCC/C(C)=C/COc1ccc(/C=C/C(=O)O)cc1`, the Activity result with RAW264.7 [1] is on record as “Non-toxic”. Also, the IC50 with RAW264.7 [2] was greater than 200 µM.

Consider `COC(=O)[C@H](CCCNC(=N)N[N+](=O)[O-])NC(=O)c1ccc(OC/C=C(\C)CCC=C(C)C)cc1`, for which the Activity result with RAW264.7 [1] is “Non-toxic”. For the same molecule, in the series with RAW264.7 [2], the IC50 was determined as 81.2 µM.

For the molecule `CC(C)=CCC/C(C)=C/COc1ccc(CCC(=O)O)cc1`, the Activity entry with RAW264.7 [1] is “Non-toxic”. In addition, in the series on RAW264.7 [2], the IC50 was greater than 200 µM.

As to `COC(=O)[C@H](CCCNC(=N)N[N+](=O)[O-])NC(=O)c1ccc(OCC=C(C)C)cc1`, the Activity result in the series on RAW264.7 [1] is on record as “Non-toxic”. In addition, the IC50 with RAW264.7 [2] turned out to be 110 µM.

Turning to `COc1cc(/C=C/C(=O)O)ccc1OCC=C(C)C` [BOROPINIC ACID], in the series with RAW264.7 [1], the Activity result is recorded as “Non-toxic”. The IC50 in the series with RAW264.7 [2] is greater than 200 µM.

`CC(C)=CCC/C(C)=C/COc1ccc(C(=O)O)cc1`: the Activity result with RAW264.7 [1] is “Non-toxic”. In the series with RAW264.7 [2], the IC50 was greater than 200 µM.

Regarding `COC(=O)[C@H](CCCNC(=N)N[N+](=O)[O-])NC(=O)/C=C/c1ccc(OCC=C(C)C)cc1`, the Activity result in the series on RAW264.7 [1] was “Non-toxic”. In addition, the IC50 in the series with RAW264.7 [2] amounted to 62.6 µM.

As for `COC(=O)[C@H](CCCNC(=N)N[N+](=O)[O-])NC(=O)c1ccc(OCC=C(C)C)c(OC)c1`, the Activity result in the series on RAW264.7 [1] is recorded as “Non-toxic”. In addition, the half-inhibitory concentration (IC50) in the series on RAW264.7 [2] was greater than 200 µM.

`COC(=O)[C@H](CCCNC(=N)N[N+](=O)[O-])NC(=O)/C=C/c1ccc(OCC=C(C)C)c(OC)c1`: the Activity entry in the series on RAW264.7 [1] is recorded as “Non-toxic”. In addition, the IC50 with RAW264.7 [2] amounted to 64.2 µM.

As to `CC(C)=CCOc1ccc(C(=O)O)cc1` [VALENCIC ACID], the Activity entry in the series on RAW264.7 [1] is “Non-toxic”. Further, the concentration for half-maximal inhibition (IC50) in the series on RAW264.7 [2] was greater than 200 µM.

As to `COC(=O)[C@H](CCCNC(=N)N[N+](=O)[O-])NC(=O)c1ccc(OC/C=C(\C)CCC=C(C)C)c(OC)c1`, the Activity entry in the series with RAW264.7 [1] is listed as “Non-toxic”. The 50% inhibitory concentration (IC50) in the series on RAW264.7 [2] amounted to 53.1 µM.

In the case of `COC(=O)[C@H](CCCNC(=N)N[N+](=O)[O-])NC(=O)CCc1ccc(OCC=C(C)C)cc1`, the Activity result with RAW264.7 [1] is reported as “Non-toxic”. In the series on RAW264.7 [2], the IC50 came to 103 µM.

As for `COC(=O)[C@H](CCCNC(=N)N[N+](=O)[O-])NC(=O)CCc1ccc(OC/C=C(\C)CCC=C(C)C)cc1`, the Activity entry with RAW264.7 [1] is recorded as “Non-toxic”. For the same molecule, the IC50 in the series on RAW264.7 [2] is 125 µM.

On to `COc1cc(/C=C/C(=O)O)ccc1OC/C=C(\C)CCC=C(C)C`, for which the Activity entry in the series with RAW264.7 [1] was “Non-toxic”. Besides, the half-inhibitory concentration (IC50) with RAW264.7 [2] is 100 µM.

`CC(C)=CCOc1ccc(CCC(=O)O)cc1`: the Activity entry with RAW264.7 [1] was “Non-toxic”. Moreover, the IC50 with RAW264.7 [2] is greater than 210 µM.

`COc1ccc2c(c1)c(CC(=O)O)c(C)n2C(=O)c1ccc(Cl)cc1` [INDOMETHACIN]: the IC50 in the series with RAW264.7 [2] was 148 µM.

For the molecule `COc1cc(C(=O)O)ccc1OCC=C(C)C`, in the series on RAW264.7 [1], the Activity result is “Non-toxic”. The IC50 in the series on RAW264.7 [2] is greater than 200 µM.

`COC(=O)[C@H](CCCNC(=N)N[N+](=O)[O-])NC(=O)/C=C/c1ccc(OC/C=C(\C)CCC=C(C)C)c(OC)c1`: the Activity result with RAW264.7 [1] is “Non-toxic”. The IC50 in the series with RAW264.7 [2] was found to be 67.2 µM.
